Test results taken from patent US20250367305A1, “ALBUMIN NANOCOMPOSITE COMPRISING PHYTOCHEMICAL AND COMPOSITION FOR IMPROVING MUSCLE DISEASE CONTAINING SAME” (SEOUL NATIONAL UNIVERSITY R&DB FOUNDATION, priority 2023, published 2025).

Assays:
[1] = tested on: Mouse muscle cells (C2C12); experiment: Muscle atrophy induced by cancer cell-conditioned medium (CCM, CT26): myotube differentiation by immunofluorescence; format: cell-based; settings: CCM-induced atrophied cells, 2.5 μM, 48 hours
Experimental: First, mouse muscle cells (C2C12) were cultured, and the culture medium was replaced with cancer cell-conditioned medium (CCM) from cultured CT26 (colon carcinoma) cells to induce muscle atrophy.
(§1) Mouse muscle cells (C2C12) were first cultured, and then their medium was replaced with cancer cell-conditioned medium (CCM) from cultured mouse colon carcinoma cells (CT26) to induce muscle atrophy. The cells were treated with either 2.5 μM of ursolic acid alone or ursolic acid-glycated albumin and incubated for 48 hours. Thereafter, fluorescence expression was confirmed to evaluate the level of myotube differentiation.
as §1, with “and” for “and then”, “soyasapogenol B” for “ursolic acid”, “soyasapogenol B-glycated” for “ursolic acid-glycated”
as §1, with “and” for “and then”, “citrusinol” for “ursolic acid”, “citrusinol-glycated” for “ursolic acid-glycated”

[2] = tested on: Mouse muscle cells (C2C12); experiment: Cytotoxicity by DAPI nuclei count; format: cell-based; settings: apigenin 2.5 and 5 μM, 96 hours
Experimental: After 96 hours of incubation, cell nuclei were stained with DAPI.

[3] = tested on: Mouse muscle cells (C2C12); experiment: Muscle cell atrophy induced by cisplatin: myotube differentiation by immunofluorescence; format: cell-based; settings: 40 μM cisplatin, 2.5 and 5 μM, 48 hours
[4] = tested on: MHC, IGF-IR, p-AKT, p-Foxo3a, MuRF1 in C2C12; experiment: Western blot of muscle generation and degradation proteins in CCM-treated cells; format: cell-based, mouse
Source text: Meanwhile, to evaluate the effect of the apigenin-glycated albumin composite on the expression of genes related to muscle generation and degradation, proteins were extracted from the cells of each experimental group and analyzed via western blotting.

[5] = tested on: RAW cells polarized from M0 to M1; experiment: M1-type macrophage inhibition: cell morphology and intracellular/extracellular ROS levels; format: cell-based
[6] = tested on: MHC, MyoG (myogenin) in C2C12; experiment: Western blot of MHC and MyoG in cisplatin-treated cells; format: cell-based, mouse; settings: reduced by cisplatin treatment
Experimental: Additionally, proteins were extracted from each experimental cell group, and western blot analysis was conducted to examine the expression level of MyoG (myogenin), which induces muscle generation.

C[C@H]1[C@H](C)CC[C@]2(C(=O)O)CC[C@]3(C)C(=CC[C@@H]4[C@@]5(C)CC[C@H](O)C(C)(C)[C@@H]5CC[C@]43C)[C@H]12 [ursolic acid]
MHC expression (immunofluorescence) [1]: increased

CC1(C)C=Cc2c(cc(O)c3c(=O)c(O)c(-c4ccc(O)cc4)oc23)O1 [citrusinol]
MHC expression (immunofluorescence) [1]: increased

CC1(C)C[C@@H](O)[C@]2(C)CC[C@]3(C)C(=CC[C@@H]4[C@@]5(C)CC[C@H](O)[C@](C)(CO)[C@@H]5CC[C@]43C)[C@@H]2C1 [soyasapogenol B]
MHC expression (immunofluorescence) [1]: increased

O=c1cc(-c2ccc(O)cc2)oc2cc(O)cc(O)c12 [apigenin]
cytotoxicity (number of DAPI-stained nuclei) [2]: neither the apigenin alone nor the apigenin-glycated albumin composite exhibited cytotoxicity | atrophy caused by cisplatin [3]: inhibited | expression of IGF-IR ([4]; CCM treatment): increased expression | expression of MHC ([4]; CCM treatment): increased expression | expression of p-AKT ([4]; CCM treatment): increased expression | expression of p-Foxo3a ([4]; CCM treatment): increased expression | MuRF1 expression ([4]; elevated by CCM treatment): reduced | RAW cell morphology ([5]; RAW cells polarized from M0 to M1, FIG. 7a): maintained in the M0 type | ROS levels (intracellular/extracellular) ([5]; RAW cells polarized from M0 to M1, FIG. 7b): ROS reduction was observed | MHC expression [6]: increased | MyoG expression [6]: increased
